Consider `COc1cccc(N2CCN(CCCCNC(=O)c3ccccc3)CC2)c1` [Compound 1-45, N-(4-(4-(3-Methoxyphenyl)piperazin-1-yl)butyl)benzamide], for which the melting point (usually the temperature, or range, at which the solid turns liquid) fell in the range of 111 to 112 °C.
To `Cc1cccc(N2CCN(CCCCNC(=O)c3cc4ccccc4o3)CC2)c1C` belongs 151 to 152 °C; to `COc1cccc(N2CCN(CCCCNC(=O)c3ccccc3)CC2)n1`, 120 to 121 °C.
To `O=C(NCCCCN1CCN(c2cnc3ccccc3c2)CC1)c1cc2ccccc2cn1` belongs 153 to 154 °C; to `O=C(NCCCCN1CCN(c2ccccc2)CC1)c1cccnc1`, 119 to 120 °C; to `O=C(NCCCCN1CCN(c2cnc3ccccc3c2)CC1)c1ccccc1`, 124 to 125 °C.
For `Cc1cccc(N2CCN(CCCCNC(=O)c3ccccc3)CC2)n1` the value was 102 to 103 °C; for `Cc1cccc(N2CCN(CCCCCOc3cc4ccccc4cn3)CC2)c1` [Compound 1-12, 3-[5-(4-m-Tolylpiperazin-1-yl)pentyloxy]isoquinoline], 94 to 95 °C; for `Cc1cccc(N2CCN(CCCCNC(=O)c3ccccc3)CC2)c1` [Compound 1-46, N-(4-(4-m-Tolylpiperazin-1-yl)butyl)benzamide], 126 to 127 °C.
In the case of `COc1cccc(N2CCN(CCCCNC(=O)c3cc4ccccc4o3)CC2)c1`, the melting point lay in the range of 104 to 105 °C.
On to `O=C1c2cc3ccccc3n2CCN1CCCCN1CCN(c2cccc(Cl)c2)CC1` [Compound 1-9, 2-[4-[4-(3-Chlorophenyl)piperazin-1-yl]butyl]-3,4-dihydropyrazino[1,2-a]indol-1(2H)-one], for which the melting point lay within 180 to 181 °C.
For `Cc1cccc(N2CCN(CCCCNC(=O)c3cc4ccccc4o3)CC2)n1` the value was 107 to 109 °C.
To `O=C(NCCCCN1CCN(c2ccccc2)CC1)c1cc2ccccc2o1` belongs 149 to 150 °C; to `Cc1cccc(N2CCN(CCCCN3CCn4c(cc5ccccc54)C3=O)CC2)c1` [Compound 1-11], 155 to 156 °C.

The values above are taken from patent US20090238761A1, “Novel Aryl Piperazine Derivatives With Medical Utility” (Universita Degli Studi Di Siena, priority 2005, published 2009).
